From patent US9060541B2, “Sterilizer for foods” (Kawakami Co., Ltd., priority 2009, dated 2015)
Read-outs that look alike come from different tables or passages of the source.

How the values were obtained:
Format in all cases: cell-based
Design in all cases: key: D: There is no sterilization effect.; C: There is a sterilization effect in step (1) but no sterilization effect in step (2).; B: There is a sterilization effect up to step (2) but no sterilization effect in step (3).; A: There is a sterilization effect up to step (3)
[1] = test system: Salmonella serotype Kentucky KX-S149; assay: Comparison test of sterilization effects against various food poisoning microbes
[2] = test system: Candida albicans NCPF 3179; assay: as above
[3] = test system: Campylobacter coli JCM 2529; assay: as above
Aeromonas sobria KX-A435 = assay: as above
[4] = test system: Vibrio cholerae O1 NIH 41
Shigella sonnei KX-H285 = assay: Comparison test of sterilization effects against various food poisoning microbes
[5] = test system: Enterohemorrhagic Escherichia coli O157:H7 EDL 933
[6] = test system: Lactobacillus plantarum RIMD 1202001; assay: Comparison test of sterilization effects against various food poisoning microbes
Vibrio fluvialis KX-F24 = assay: as above
[7] = test system: Vibrio cholerae O139 MO45
[8] = test system: Enteropathogenic Escherichia coli O55 KX-E59; assay: Comparison test of sterilization effects against various food poisoning microbes
[9] = test system: Campylobacter jejuni subsp. Jejuni JCM2013; assay: as above
[10] = test system: Salmonella serotype Rissen KX-S151; assay: as above
[11] = test system: Salmonella serotype Agona KX-S143; assay: as above
[12] = test system: Staphylococcus aureus 080392-1 Toxin type A; assay: as above
[13] = Table 7, test microbe solution without yeast extract
[14] = Table 8, yeast extract 4 weight % blended in test microbe solution

CCO [EtOH 30%, ethanol]
Sterilization effect [1, 13]: C
Sterilization effect [1, 14]: C
Sterilization effect [2, 13]: B
Sterilization effect [2, 14]: C
Sterilization effect [3, 13]: B
Sterilization effect [3, 14]: B
Sterilization effect (Aeromonas sobria KX-A435; [13]): B
Sterilization effect (Aeromonas sobria KX-A435; [14]): C
Sterilization effect [4, 13]: B
Sterilization effect [4, 14]: C
Sterilization effect (Shigella sonnei KX-H285; [13]): C
Sterilization effect (Shigella sonnei KX-H285; [14]): C
Sterilization effect [5]: D
Sterilization effect [6, 13]: C
Sterilization effect [6, 14]: D
Sterilization effect (Vibrio fluvialis KX-F24; [13]): C
Sterilization effect (Vibrio fluvialis KX-F24; [14]): C
Sterilization effect [7, 13]: B
Sterilization effect [7, 14]: C
Sterilization effect [8, 13]: D
Sterilization effect [8, 14]: D
Sterilization effect [9, 13]: B
Sterilization effect [9, 14]: B
Sterilization effect [10, 13]: C
Sterilization effect [10, 14]: C
Sterilization effect [11, 13]: C
Sterilization effect [11, 14]: C
Sterilization effect [12, 13]: B
Sterilization effect [12, 14]: D

[Na+].[O-]Cl [S.H 150 ppm, sodium hypochlorite]
Sterilization effect [1, 13]: A
Sterilization effect [1, 14]: D
Sterilization effect [2, 13]: A
Sterilization effect [2, 14]: D
Sterilization effect [3, 13]: A
Sterilization effect [3, 14]: C
Sterilization effect (Aeromonas sobria KX-A435; [13]): A
Sterilization effect (Aeromonas sobria KX-A435; [14]): D
Sterilization effect [4, 13]: A
Sterilization effect [4, 14]: D
Sterilization effect (Shigella sonnei KX-H285; [13]): A
Sterilization effect (Shigella sonnei KX-H285; [14]): D
Sterilization effect [5, 13]: A
Sterilization effect [5, 14]: D
Sterilization effect [6, 13]: A
Sterilization effect [6, 14]: D
Sterilization effect (Vibrio fluvialis KX-F24; [13]): A
Sterilization effect (Vibrio fluvialis KX-F24; [14]): D
Sterilization effect [7, 13]: A
Sterilization effect [7, 14]: D
Sterilization effect [8, 13]: A
Sterilization effect [8, 14]: D
Sterilization effect [9, 13]: A
Sterilization effect [9, 14]: C
Sterilization effect [10, 13]: A
Sterilization effect [10, 14]: D
Sterilization effect [11, 13]: A
Sterilization effect [11, 14]: D
Sterilization effect [12, 13]: A
Sterilization effect [12, 14]: D
